Measurements reported in patent publication US10618904B2 (priority 2016, dated 2020).
Values after ≈ are worked out from the molar mass of the structure shown. Values joined by “and” are separate entries in the source; they are usually repeats but may differ in a detail not shown here. Equal values may be shown once. Read-outs that look alike come from different tables or passages of the source.

Tests used:
[1] = Activity of degradation impurity relative to compound of formula (I); details: fraction of parent activity
Description: [drawing 4] the impurity having an activity which is 1/300 of that of the compound of formula (I). […] Whether the stability is good or not is also a key factor in selecting the crystal form of the compound. Accordingly, it is preferred in the present invention that the hydrobromide of the compound of the formula (I) is present in the form of α crystal form. […] In the differential scanning calorimetry of the α crystal form, there is a melting endothermic peak at 170° C.±2° C. Therefore, in the present invention, the structure of the α crystal form is defined by the above-mentioned powder diffraction characteristic peaks and DSC melting peak, and on the basis of this definition, the α crystal form can be clearly distinguished from other three crystal forms.

[2] = Solubility in water of screened salts (Table 2)
Text: (§1) In order to achieve the above water solubility goal, the inventors have conducted studies from various aspects, e.g., crystal forms of existing salts, preparation excipients, formation of new salt types, etc., hoping to find a feasible means that can improve water solubility while ensuring better druggability.

[3] = Hygroscopicity of screened salts (Table 2); type: physicochemical
Text: as §1

[4] = prior art information; cited from earlier work
[5] = cited from earlier work
[6] = statement of CN103221414B / CN201280003321.6, cited from earlier work
[7] = 40 degrees, RH75% closed, 4 weeks
[8] = 40 degrees, RH75% closed and 60 degrees open, 34 days

## Cc1cnc2n1-c1ccc(Br)cc1C(c1ccccn1)=N[C@H]2CCC(=O)O
[1]
  activity relative to that of the compound of formula (I): 1/300

## COC(=O)CC[C@@H]1N=C(c2ccccn2)c2cc(Br)ccc2-n2c(C)cnc21
[2]; water
  solubility: > 100 mg/mL

## O=S(=O)(O)c1cccc2c(S(=O)(=O)O)cccc12 [1,5-naphthalene disulfonate]
[2]
  Solubility in water: 1 mg/mL
[3]
  Hygroscopicity (%): 15.9%

## COC(=O)CC[C@@H]1N=C(c2ccccn2)c2cc(Br)ccc2-n2c(C)cnc21.O=S(=O)(O)O [(bi)sulfate form 1]
[3]
  Hygroscopicity (%): 0.1%

## COC(=O)CC[C@@H]1N=C(c2ccccn2)c2cc(Br)ccc2-n2c(C)cnc21.O=S(=O)(O)O [(bi)sulfate form 2]
[2]
  Solubility in water: >100 mg/mL
[3]
  Hygroscopicity (%): 24.9%

## COC(=O)CC[C@@H]1N=C(c2ccccn2)c2cc(Br)ccc2-n2c(C)cnc21.Cl [Hydrochloride]
[2]
  Solubility in water: >100 mg/mL
[3]
  Hygroscopicity (%): 2.8%

## COC(=O)CC[C@@H]1N=C(c2ccccn2)c2cc(Br)ccc2-n2c(C)cnc21.O=S(=O)(O)c1ccccc1 [Remimazolam besylate]
[4]
  Solubility in water: 8.3 mg/mL
[5]; [7]
  degradation: 0.5%

## COC(=O)CC[C@@H]1N=C(c2ccccn2)c2cc(Br)ccc2-n2c(C)cnc21 [Remimazolam esylate]
[4]
  Solubility in water: 7.8 mg/mL (≈ 17.8 mM)
[5]; [7]
  degradation: 0.2%

## COC(=O)CC[C@@H]1N=C(c2ccccn2)c2cc(Br)ccc2-n2c(C)cnc21.Cc1ccc(S(=O)(=O)O)cc1 [Remimazolam tosylate]
[6]
  toxicity compared with besylate / benzene sulfonic acid: less toxic than benzene sulfonic acid
[6]; listed as tosylate of the compound of the formula (I)
  toxicity compared with besylate / benzene sulfonic acid: less toxic than besylate
[4]
  Solubility in water: ~10 mg/mL and ~11 mg/mL

## COC(=O)CC[C@@H]1N=C(c2ccccn2)c2cc(Br)ccc2-n2c(C)cnc21 [Remimazolam, methyl 3-[(4s)-8-bromo-1-methyl-6-(2-pyridyl)-4H-imidazol[1,2-a][1,4]benzodiazepine-4-yl] propionate]
[2]
  Solubility in water (mg/mL): almost
[3]; listed as Free base
  Hygroscopicity (%): 1.7%
[4]
  Solubility in water: Almost insoluble in water
[5]; [8]
  appearance change: yellowing at 40 degrees, RH75% closed and 60 degrees
  degradation: 1.5-8%
[5]; 40° C./75% relative humidity (open), reported in CN101501019
  stability of sample: deliquescent, discolored, and significantly reduced in content

## COC(=O)CC[C@@H]1N=C(c2ccccn2)c2cc(Br)ccc2-n2c(C)cnc21 [crystal form 1]
[2]
  Solubility in water: >100 mg/mL
[3]; listed as Hydrobromide crystal form 1
  Hygroscopicity (%): 4.6%

## COC(=O)CC[C@@H]1N=C(c2ccccn2)c2cc(Br)ccc2-n2c(C)cnc21 [crystal form 2]
[2]
  Solubility in water: >100 mg/mL

## COC(=O)CC[C@@H]1N=C(c2ccccn2)c2cc(Br)ccc2-n2c(C)cnc21 [crystal form 3]
[2]
  Solubility in water: >100 mg/mL
[3]; listed as Hydrobromide crystal form 3
  Hygroscopicity (%): 5%

## COC(=O)CC[C@@H]1N=C(c2ccccn2)c2cc(Br)ccc2-n2c(C)cnc21 [α crystal form]
[2]
  Solubility in water: >100 mg/mL
[3]; listed as Hydrobromide crystal form α
  Hygroscopicity (%): 2.5%
